The Bradley open melting point set (2014)
Values joined by “and” are separate entries in the source; they are usually repeats but may differ in a detail not shown here. Identical values can stand only once.

melting point	SMILES
126 °C	O=C(O)c1ccccc1CO [o-hydroxymethyl_benzoic_acid]
109 °C	N#Cc1ccccc1[N+](=O)[O-] [o-nitrobenzonitrile]
50 °C	OCc1ccccc1-c1ccccc1 [o-phenylbenzyl_alcohol]
105 °C	Cc1ccccc1C(=O)O [o-toluic acid]
105 °C	Cc1ccccc1C(=O)O [o-toluic_acid]
-14 °C	Cc1ccccc1C#N [o-tolunitrile]
67 °C	O=C1CCC2C3CCC(=O)C3C12 (stereo not drawn) [octahydrocyclobuta[1,2-a:3,4-a']dicyclopentene-1,6-dione]
17 °C	CCCCCCCC(=O)O [octanoic_acid]
0 °C	CCCCCCCCN [octylamine]
14 °C	CCCCCCCC/C=CCCCCCCCC(=O)O [oleic acid]
20 °C	O=P(O)(O)O [orthophosphoric acid]
189 °C	Nc1ccc(C(=O)O)cc1 [p-aminobenzoic acid]
-22 °C	CC(C)c1ccc(Br)cc1 [p-bromocumene]
-68 °C	Cc1ccc(C(C)C)cc1 [p-cymene]
66 °C	C=C(C)c1ccc(C(=C)C)cc1 [p-diisopropenylbenzene]
75 °C	CN(C)c1ccc(C=O)cc1 [p-dimethylaminobenzaldehyde]
247 °C	O=Cc1ccc(C(=O)O)cc1 [p-formyl_benzoic_acid]
47 °C	O=Cc1ccc(CO)cc1 [p-hydroxymethyl_benzaldehyde]
182 °C	O=C(O)c1ccc(CO)cc1 [p-hydroxymethyl_benzoic_acid]
24 °C	CC(=O)c1ccc(C)cc1 [p-methylacetophenone]
201 °C	NC(=O)c1ccc([N+](=O)[O-])cc1 [p-nitrobenzamide]
116 °C	N#CCc1ccc([N+](=O)[O-])cc1 [p-nitrophenylacetonitrile]
86 °C	CNC(=O)c1ccc(-c2ccccc2)cc1 [p-phenyl-n-methylbenzamide]
119 °C	C=Cc1ccc(-c2ccccc2)cc1 [p-phenylstyrene]
139 °C	Cc1ccc(S(N)(=O)=O)cc1 [p-toluenesulfonamide]
182 °C	Cc1ccc(C(=O)O)cc1 [p-toluic_acid]

melting point	SMILES
28 °C	Cc1ccc(C#N)cc1 [p-tolunitrile]
70 °C	Cc1ccc(OC(=O)c2ccccc2)cc1 [p-tolyl_benzoate]
26 °C	C=Cc1ccc(N)cc1 [p-vinylaniline]
169 °C	CC(=O)Nc1ccc(O)cc1 [paracetamol]
10 °C	CCCCCCCCCCCCCCC [pentadecane]
102 °C	O=C(O)c1c(F)c(F)c(F)c(F)c1F [pentafluorobenzoic acid]
-33.9 °C and -33.7 °C	CCCCC(=O)O [pentanoic acid] [listing 1 of 2 here]
-34 °C	CCCCC(=O)O [pentanoic acid] [listing 2 of 2 here]
116 °C	N#Cc1ccc2c(c1)N(CCCN1CCC(O)CC1)c1ccccc1S2 [perciyazine]
96.9 °C	OCCN1CCN(CCCN2c3ccccc3Sc3ccc(Cl)cc32)CC1 [perphenazine]
-30 °C	CCOc1ccccc1 [phenetole]
260 °C	O=C1OC(c2ccc(O)cc2)(c2ccc(O)cc2)c2ccccc21 [phenolphthalein]
69 °C	O=C(Oc1ccccc1)c1ccccc1 [phenyl benzoate]
154 °C	OC[C@H]1O[C@@H](Oc2ccccc2)[C@H](O)[C@@H](O)[C@H]1O [phenyl beta-D-galactopyranoside]
69 °C	C=CS(=O)(=O)c1ccccc1 [phenyl vinyl sulfone]
70 °C	O=C(Oc1ccccc1)c1ccccc1 [phenyl_benzoate]
105 °C	CCCCC1C(=O)N(c2ccccc2)N(c2ccccc2)C1=O [phenylbutazone]
112 °C	N#CCS(=O)(=O)c1ccccc1 [phenylsulfonylacetonitrile]
128 °C	NC(=S)N1CCCCC1 [piperidine-1-thiocarboxamide]
119 °C	COc1cc(C(=O)OCc2cccc(COC(=O)c3cc(OC)c(OC)c(OC)c3)n2)cc(OC)c1OC [pirozadil]
285 °C	COc1cc2nc(N3CCN(C(=O)c4ccco4)CC3)nc(N)c2cc1OC [prazosin]
240 °C	O=C\1\C=C/[C@]4(/C(=C/1)CC[C@@H]2[C@@H]4[C@@H](O)C[C@@]3([C@@](O)(C(=O)CO)CC[C@@H]23)C)C [prednisolone]
198 °C	CCCN(CCC)S(=O)(=O)c1ccc(C(=O)O)cc1 [probenecid]
126 °C	CC(=O)[C@H]1CC[C@H]2[C@@H]3CCC4=CC(=O)CC[C@]4(C)[C@H]3CC[C@]12C [progesterone]
221 °C	O=C(O)[C@@H]1CCCN1 [proline]
60 °C	CC(CN1c2ccccc2Sc2ccccc21)N(C)C (stereo not drawn) [promethazine]

melting point	SMILES
-80 °C	CCC=O [propanal]
106 °C	CCCNC(=O)C(C(F)(F)F)C(F)(F)F [propanamide, 3,3,3-trifluoro-N-propyl-2-(trifluoromethyl)-]
-81 °C	CCC=O [propionaldehyde]
162 °C	CC(C)NCC(O)COc1cccc2ccccc12 (stereo not drawn) [propranolol] [listing 1 of 2 here]
162 °C	CC(C)NCC(O)COc1cccc2ccccc12 (stereo not drawn) [propranolol] [listing 2 of 2 here]
67 °C	CCCCC[C@H](O)/C=C/[C@H]1[C@H](O)CC(=O)[C@@H]1C/C=C\CCCC(=O)O [prostaglandin E2]
133 °C	Oc1cccc(O)c1O [pyrogallol]
177 °C	C=C[C@H]1C[N@@]2CC[C@H]1C[C@H]2[C@H](O)c1ccnc2ccc(OC)cc12 [quinine]
295 °C	O=C(O)c1ccc2ncccc2c1 [quinoline-6-carboxylic acid]
69 °C	CNC(=C[N+](=O)[O-])NCCSCc1ccc(CN(C)C)o1 [ranitidine]
111 °C	Oc1cccc(O)c1 [resorcinol]
280 °C	O=C2/N=C\1/N(c3cc(c(cc3/N=C/1C(=O)N2)C)C)CC(O)C(O)C(O)CO (stereo not drawn) [riboflavin]
140 °C	NC(=O)c1ccccc1O [salicylamide]
133 °C	O=C(O)CCCCCCCCC(=O)O [sebacic_acid]
-99 °C	CCC(C)OC(C)=O (stereo not drawn) [sec-butyl acetate]
111 °C	OC[C@@H](O)[C@@H](O)[C@H](O)[C@@H](O)CO [sorbitol]
29 °C	NCCCNCCCCNCCCN [spermine]
-38 °C	CC(C)CCCC(C)CCCC(C)CCCCC(C)CCCC(C)CCCC(C)C (stereo not drawn) [squalane]
-75 °C	CC(C)=CCC/C(C)=C/CC/C(C)=C/CC/C=C(\C)CC/C=C(\C)CCC=C(C)C [squalene]
235 °C	Cc1ccnc(NS(=O)(=O)c2ccc(N)cc2)n1 [sulfamerazine (polymorph 1)]
235 °C	Cc1ccnc(NS(=O)(=O)c2ccc(N)cc2)n1 [sulfamerazine]
200 °C	Cc1cc(C)nc(NS(=O)(=O)c2ccc(N)cc2)n1 [sulfamethazine] [listing 1 of 2 here]
200 °C	Cc1cc(C)nc(NS(=O)(=O)c2ccc(N)cc2)n1 [sulfamethazine] [listing 2 of 2 here]
182 °C	COc1ccc(NS(=O)(=O)c2ccc(N)cc2)nn1 [sulfamethoxypyridazine]
202 °C	Nc1ccc(S(=O)(=O)Nc2nccs2)cc1 [sulfathiazole] [listing 1 of 2 here]
202 °C	Nc1ccc(S(=O)(=O)Nc2nccs2)cc1 [sulfathiazole] [listing 2 of 2 here]

SMILES	melting point
COc1ccccc1[N+](=O)[O-] [o-nitroanisole]	10 °C
Cc1ccccc1C [o-xylene]	-25 °C
O=C1c3c(N(\C=C1\C(=O)O)CC)cc2OCOc2c3 [oxolinic acid]	315 °C
N#CCc1ccc(CC#N)cc1 [p-Xylylene dicyanide]	96 °C
CC(=O)c1ccc(-c2ccccc2)cc1 [p-acetylbiphenyl]	122 °C
Clc1ccc(Br)cc1 [p-bromochlorobenzene]	67 °C
CCOc1ccc(N)cc1 [p-ethoxyaniline]	4 °C
Cc1ccc([N+](=O)[O-])cc1 [p-nitrotoluene]	54 °C
CCOc1ccc(N)cc1 [p-phenetidine]	3 °C
Oc1ccc(-c2ccccc2)cc1 [p-phenylphenol]	167 °C
Cc1ccc(N)cc1 [p-toluidine]	44 °C
Cc1ccc(CC#N)cc1 [p-tolylacetonitrile]	18 °C
Cc1ccc(C)cc1 [p-xylene]	13 °C
Oc1c(F)c(F)c(F)c(F)c1F [pentafluorophenol]	34 °C
NNc1c(F)c(F)c(F)c(F)c1F [pentafluorophenylhydrazine]	76 °C
CCCC(C)C1(CC)C(=O)NC(=O)NC1=O (stereo not drawn) [pentobarbital]	130 °C
CN1CCC2=C(C1)C(c1ccccc1)c1ccccc12 (stereo not drawn) [phenindamine]	91 °C
c1ccc2c(c1)Nc1ccccc1S2 [phenothiazine]	184 °C (3×) and 188 °C and 185 °C (2×)
O=C(O)COc1ccccc1 [phenoxyacetic_acid]	100 °C
O=C(O)Cc1ccccc1 [phenylacetic acid]	77.5 °C
N#CCc1ccccc1 [phenylacetonitrile]	-24 °C
C[C@]12CC[C@H](O)CC1=CC[C@@H]1[C@@H]2CC[C@]2(C)C(=O)CC[C@@H]12 [prasterone]	140 °C
C#CCO [propargyl alcohol]	-53 °C
C#CCO [propargyl_alcohol]	-17 °C
CCC(=O)c1ccccc1 [propiophenone]	18 °C
CCC(=O)OC(Cc1ccccc1)(c1ccccc1)C(C)CN(C)C (stereo not drawn) [propoxyphene]	75 °C
N#CCCCCCCCCC#N [sebaconitrile]	6 °C
CCC(C)C1(CC)C(=O)NC(=O)NC1=O (stereo not drawn) [secbutabarbital]	166 °C
O=C(CCCN1CCC2(CC1)C(=O)NCN2c1ccccc1)c1ccc(F)cc1 [spiperone]	190 °C
C[C@]12CCC(=O)C[C@@H]1CC[C@@H]1[C@@H]2CC[C@]2(C)[C@@H](O)CC[C@@H]12 [stanolone]	181 °C
